14 compounds from ChEMBL document CHEMBL1201862, “PubChem BioAssay data set” (2004) can be followed below.

Experiment in all cases: growth of human tumour cells (NCI), 48 h
Experiment [1] deals with SR.
Experiment [2] has as its system MOLT-4.
Experiment [3] has as its system NCI-H460.
The test system of experiment [4] is PC-3.
Experiment [5] relates to COLO 205.
Experiment [6] concerns LOX IMVI.
The subject of experiment [7] is SN12C.
The subject of experiment [8] is OVCAR-3.
For experiment [9], the system named is SF-539.
The subject of experiment [10] is MDA-MB-435.
Experiment [11] concerns T47D.
Experiment [12] concerns MDA-MB-231.
For experiment [13], the system named is MCF7.
For experiment [14], the system named is SK-OV-3.
The test system of experiment [15] is SK-MEL-28.
In experiment [16] the test system is OVCAR-8.
Experiment [17] has as its system K562.
The test system of experiment [18] is SF-268.
Experiment [19] deals with HCT-15.

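Growth conditions: 96-well plates. Treatment: test compound, 48 hours, 5 concentrations. Analysis: linear interpolation between bracketing concentrations; unreached endpoints set to highest concentration. Abbreviation: GI50, concentration required for 50% inhibition of growth.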 Active and inactive are the calls of the source. Cut-off read from the data, not from the text of the source: active = GI50 up to about 1.1 µM and inactive = higher.

For `C/C(=C\CNc1ncnc2[nH]c(Cl)nc12)CO`, the GI50 in experiment [1], in [2], in experiment [3], in experiment [4], in [5] and in experiment [6] was > 100 µM (inactive) throughout. The GI50 in [7], in experiment [8], in experiment [9], in experiment [10], in [11] and in experiment [12] was > 100 µM (inactive) throughout. Also, the GI50 in experiment [13], in [14], in [15], in experiment [16], in [17] and in experiment [18] was > 100 µM (inactive) throughout.

For the compound `CC1=C(C)C(=O)c2c(cc3ccccn23)C1=O`, the GI50 in [1] was 23.3 µM (inactive); in experiment [2] it was 24.2 µM (inactive); in experiment [3], 15.5 µM (inactive); in experiment [19] it was 14.4 µM; in [5], 20.3 µM (inactive); in experiment [6], 5.14 µM (inactive). The GI50 was 13.7 µM (inactive) in experiment [7]; 14.6 µM (inactive) in experiment [8]; 20 µM (inactive) in experiment [9]; 20 µM (inactive) in experiment [14]; 19 µM (inactive) in experiment [15]; 22.8 µM (inactive) in experiment [16]. For the same compound, the GI50 is 27.5 µM (inactive) in experiment [17] and 20.9 µM (inactive) in experiment [18].

In the case of `COc1cc([C@@H]2c3cc4c(cc3[C@@H](OC(=O)c3cccc(N)c3)C3COC(=O)[C@@H]32)OCO4)cc(OC)c1O` (stereo not given in full), the GI50 in [1] was 0.565 µM (active); in experiment [2] it was 1.91 µM (inactive); in [3] it was 0.671 µM (active); in [19] it was 13.3 µM; in [5] it was 11.3 µM (inactive); in [6], 4.47 µM (inactive). Moreover, the GI50 is 3.42 µM (inactive) in [7]; 34.6 µM (inactive) in experiment [8]; 0.621 µM (active) in experiment [9]; 11.5 µM (inactive) in experiment [14]; 0.91 µM (active) in experiment [15]; 8.05 µM (inactive) in experiment [16]. Moreover, the GI50 is 2.02 µM (inactive) in experiment [17] and 1.47 µM (inactive) in experiment [18].

As for `CC(C)(CCl)NC(=O)c1cccc(C(=O)NC(C)(C)CCl)n1`, the GI50 was > 100 µM (inactive) in experiment [1]; > 100 µM (inactive) in experiment [2]; > 100 µM (inactive) in [3]; above 100 µM in [19]; > 100 µM (inactive) in [5]; > 100 µM (inactive) in experiment [6]. For the same compound, the GI50 in experiment [7], in experiment [8], in [9], in experiment [14], in [15] and in experiment [17] was > 100 µM (inactive) in each case. The GI50 in [18] was > 100 µM (inactive).

For `COc1ccccc1C(O)(c1ccccc1)C(O)(c1ccccc1)c1ccccc1OC` (stereo not given), the GI50 was > 100 µM (inactive) in experiment [1]; 48.1 µM (inactive) in experiment [2]; > 100 µM (inactive) in experiment [3]; above 100 µM in [19]; > 100 µM (inactive) in experiment [5]; > 100 µM (inactive) in experiment [6]. Moreover, the GI50 in [7] is > 100 µM (inactive); in [8], > 100 µM (inactive); in experiment [9] it was > 100 µM (inactive); in experiment [14] it was > 31.6 µM (inactive); in [15], > 100 µM (inactive); in experiment [16], > 100 µM (inactive). Besides, the GI50 in experiment [17] and in experiment [18] was > 100 µM (inactive) each time.

Turning to `CC(=O)c1cc2ccccc2[n+]([O-])c1N`, the GI50 in experiment [1] is > 100 µM (inactive); in experiment [2], > 100 µM (inactive); in experiment [3], > 100 µM (inactive); in experiment [19], above 100 µM; in experiment [4], > 100 µM (inactive); in [5], > 100 µM (inactive). Also, the GI50 in experiment [6], in experiment [7], in experiment [8], in experiment [9], in experiment [10] and in experiment [11] was > 100 µM (inactive) in each case. Also, the GI50 in experiment [12], in experiment [13], in experiment [14], in experiment [15], in experiment [16] and in [18] was > 100 µM (inactive) throughout.

For `CN=[S+]([O-])(c1ccccc1)c1ccccc1`, the GI50 in experiment [1] was > 100 µM (inactive); in [2], > 100 µM (inactive); in [3], > 100 µM (inactive); in experiment [19], above 100 µM; in experiment [5], > 100 µM (inactive); in experiment [6], > 100 µM (inactive). Also, the GI50 in experiment [7], in experiment [8], in experiment [9], in experiment [14], in experiment [15] and in [16] was > 100 µM (inactive) throughout. Further, the GI50 in experiment [17] and in experiment [18] was > 100 µM (inactive) each time.

`NC(=S)N/N=C(\CCC(=O)Nc1ccccc1[N+](=O)[O-])CC(=O)c1ccco1`: the GI50 in experiment [1] is > 100 µM (inactive); in experiment [2], > 100 µM (inactive); in experiment [3], > 100 µM (inactive); in [19], above 100 µM; in experiment [5], > 100 µM (inactive); in experiment [6], > 100 µM (inactive). Further, the GI50 in experiment [7], in [8], in experiment [9], in experiment [14], in experiment [15] and in experiment [16] was > 100 µM (inactive) each time. Moreover, the GI50 in experiment [17] and in [18] was > 100 µM (inactive) throughout.

`NC1=NC2=c3ccccc3=C(c3cnccn3)C2(c2cnccn2)c2ccccc21` (stereo not given): the GI50 in experiment [1] is 39.5 µM (inactive); in [2] it was 33.6 µM (inactive); in [3], 58.6 µM (inactive); in experiment [19], above 100 µM; in experiment [5], 32.4 µM (inactive); in [6] it was 64.4 µM (inactive). Also, the GI50 is > 100 µM (inactive) in experiment [7]; 13.8 µM (inactive) in experiment [8]; 80.5 µM (inactive) in [9]; > 100 µM (inactive) in experiment [14]; > 100 µM (inactive) in [15]; 73.3 µM (inactive) in experiment [16]. In addition, the GI50 in experiment [17] is 66.5 µM (inactive); in experiment [18], 74.1 µM (inactive).

In the case of `CCOC(=O)N1Cc2ccoc2C1`, the GI50 in experiment [1] was > 100 µM (inactive); in experiment [2] it was > 100 µM (inactive); in experiment [3], > 100 µM (inactive); in [19], above 100 µM; in [5], > 100 µM (inactive); in experiment [6], > 100 µM (inactive). The GI50 in experiment [7], in experiment [8], in [9], in [14], in experiment [15] and in experiment [16] was > 100 µM (inactive) in each case. In addition, the GI50 in [17] is > 100 µM (inactive); in [18], 0.769 µM (active).

With `CC(C)(C)C=C=C(C(C)(C)C)P(=O)(O)O`, the GI50 in experiment [1] is > 100 µM (inactive); in experiment [3], > 100 µM (inactive); in experiment [19] it was above 100 µM; in experiment [4] it was > 100 µM (inactive); in experiment [5] it was > 100 µM (inactive); in experiment [6] it was > 100 µM (inactive). For the same compound, the GI50 in experiment [7], in experiment [8], in [9], in experiment [10], in experiment [11] and in experiment [14] was > 100 µM (inactive) in each case. The GI50 in [15], in experiment [16], in experiment [17] and in [18] was > 100 µM (inactive) in each case.

In the case of `COc1cccc(C2c3cc4c(cc3OC(N3CCCC3)C2C)OCO4)c1` (stereo not given), the GI50 is 3.82 µM (inactive) in [1]; 4.68 µM in experiment [19]; 11 µM (inactive) in experiment [4]; 9.77 µM (inactive) in [5]; 5.71 µM (inactive) in [6]; 20.9 µM (inactive) in experiment [7]. Besides, the GI50 in [8] was 7.48 µM (inactive); in experiment [9], 8.69 µM (inactive); in [10], 2.7 µM (inactive); in [11], 5.16 µM (inactive); in experiment [13] it was 5.85 µM (inactive); in experiment [15], 8.79 µM (inactive). The GI50 in experiment [16] was 18.7 µM (inactive); in experiment [17], 2.69 µM (inactive); in experiment [18], 14.7 µM (inactive).

For `CC1C2=CC=C(O2)C(C)(C)C2=CC=C(O2)C(C)(C)C2=CC=C(O2)C(C)(C)C2=CC=C1O2`, the GI50 in [1] is > 100 µM (inactive); in experiment [2], > 100 µM (inactive); in [3], > 100 µM (inactive); in experiment [19], above 100 µM; in experiment [5], > 100 µM (inactive); in [6], > 100 µM (inactive). For the same compound, the GI50 in experiment [7], in experiment [9], in experiment [14], in experiment [15], in experiment [16] and in experiment [17] was > 100 µM (inactive) throughout. For the same compound, in [18], the GI50 is > 100 µM (inactive).

For the compound `N#C/C(=C\c1ccc(O)cc1)C(N)=O`, the GI50 in [2] was > 100 µM (inactive); in [3] it was > 100 µM (inactive); in experiment [19], above 100 µM; in experiment [5], > 100 µM (inactive); in experiment [6] it was > 100 µM (inactive); in experiment [7], > 100 µM (inactive). The GI50 in experiment [8], in experiment [9], in experiment [13], in experiment [14], in [15] and in experiment [16] was > 100 µM (inactive) in each case. Moreover, the GI50 in experiment [17] and in experiment [18] was > 100 µM (inactive) throughout.
